Experimental data taken from US20090142816A1, “GLIOCLADIUM ISOLATE C-13 AND METHODS OF ITS USE FOR PRODUCING VOLATILE COMPOUNDS AND HYDROCARBONS” (priority 2007, published 2009).
Entries after “also recorded” stand apart in the source; their conditions may differ.

Experiments:
Experiment in all cases: PDA plate bioassay of artificial VOC mixture / [8]annulene, two day exposure
Format in all cases: cell-based
Aspergillus ochraceus = tested on: Aspergillus ochraceus
Procedure: (§1) An artificial mixture of compounds, as well as [8]annulene, that were positively identified in the atmosphere of the Gliocladium sp., were subjected to PDA plate bioassay tests for a two day exposure period. They were available from Sigma-Aldrich (St. Louis, Mo.) or were prepared via organic synthetic techniques (Strobel et al., Microbiology 147: 2943-2950, 2001). Varying amounts (non-equilibrium conditions) of the mixtures of the VOCs (0.8-30 μl) were placed in a small sterile plastic microcup (4×6 mm) that was firmly fixed in the middle of the test plate, and then test organisms were inoculated around the periphery of the agar surface. The amount of each VOC used was calculated from relative areas (RA's) in Table 2. […] Measurements of fungal growth were made and compared to growth on a control PDA plate having no test compounds. The IC50 and IC100 values were calculated from data plots of inhibition of fungal growth as a function of VOC concentrations (Strobel et al., Microbiology 147: 2943-2950, 2001). The IC values are presented as the amount of VOCs (volume per ml of air space in the Petri plate above the fungal culture). Studies were done in triplicate and the data averaged and standard deviations determined (Strobel et al., Microbiology 147: 2943-2950, 2001). Each test organism, after the two day exposure was tested for its viability by placing it on a fresh plate of PDA.
(§2) The test fungi were exposed to amounts of the VOC's varying from 0.8 μl to 30 μl (non-equilibrium conditions in a 50 ml air space volume above the fungal culture on the Petri plate) and exposed to them for two days after which growth rates were measured and the IC50's and IC100's calculated.
(§3) The artificial mixture was prepared based on the ratios of the compounds identified by GC/MS. The IC50's were calculated on the basis of the μl VOCs/ml of the free gas space in the Petri plate above the fungal culture. The IC100's were extrapolated from the curves obtained by plotting fungal inhibition vs. VOC concentration. The IC100's represent the approximate concentration required to give 100% inhibition of fungal growth. Viability was evaluated by transferring the fungal to a regular PDA plate after exposure to the VOC mixtures.
(§4) The IC50's were calculated on the basis of the μl [8]annulene/ml of the free gas space in the Petri plate above the fungal culture. The IC50's and IC100's were calculated in the same manner as described in Example 1. The IC100's represent the approximate concentration required to give 100% inhibition of fungal growth. Viability was tested by transferring the fungal to a regular PDA plate after exposure to [8]annulene.

Fusarium oxysporum = tested on: Fusarium oxysporum
Procedure: as §1, §2, §3, §4

Geotrichum candidum = tested on: Geotrichum candidum
Procedure: as §1, §2, §3, §4

Gliocladium sp. = tested on: Gliocladium sp.
Procedure: as §1, §2, §3, §4

Pythium ultimum = tested on: Pythium ultimum
Procedure: as §1, §2, §3, §4

Rhizoctonia solani = tested on: Rhizoctonia solani
Procedure: as §1, §2, §3, §4

Sclerotinia sclerotiorum = tested on: Sclerotinia sclerotiorum
Procedure: as §1, §2, §3, §4

Verticillium dahliae = tested on: Verticillium dahliae
Procedure: as §1, §2, §3, §4

[1] = after exposure at the IC100 level, placed on fresh agar plate
[2] = two day exposure, approximate concentration for 100% inhibition, extrapolated from inhibition curves
[3] = two day exposure, μl per ml of free gas space in the Petri plate

IC50 (Aspergillus ochraceus; [3]): 0.08 ± 0.01 μl/ml
IC50 (Fusarium oxysporum; [3]): 0.28 ± 0.03 μl/ml
IC50 (Geotrichum candidum; [3]): 0.10 ± 0.02 μl/ml
IC50 (Gliocladium sp.; [3]): 0.30 ± 0.01 μl/ml
IC50 (Pythium ultimum; [3]): 0.10 ± 0.04 μl/ml
IC50 (Rhizoctonia solani; [3]): 0.14 ± 0.08 μl/ml
IC50 (Sclerotinia sclerotiorum; [3]): 0.05 ± 0.01 μl/ml
IC50 (Verticillium dahliae; [3]): 0.18 ± 0.00 μl/ml
SMILES: C1=CC=CC=CC=C1 [[8]annulene, 1,3,5,7-cyclooctatetraene]
Viability (Aspergillus ochraceus; [1]): alive
IC100 (Aspergillus ochraceus; [2]): 0.50 μl/ml
Viability (Fusarium oxysporum; [1]): alive
IC100 (Fusarium oxysporum; [2]): 0.70 μl/ml
Viability (Geotrichum candidum; [1]): alive
IC100 (Geotrichum candidum; [2]): 0.44 μl/ml
Viability (Gliocladium sp.; [1]): alive
IC100 (Gliocladium sp.; [2]): 0.60 μl/ml
Viability (Pythium ultimum; [1]): did not die; also recorded: alive
IC100 (Pythium ultimum; [2]): 0.30 μl/ml
Viability (Rhizoctonia solani; [1]): alive
IC100 (Rhizoctonia solani; [2]): 0.40 μl/ml
Viability (Sclerotinia sclerotiorum; [1]): did not die; also recorded: alive
IC100 (Sclerotinia sclerotiorum; [2]): 0.30 μl/ml
Viability (Verticillium dahliae; [1]): alive
IC100 (Verticillium dahliae; [2]): 0.30 μl/ml
